Test results from ChEMBL document CHEMBL1125804, “Antitumor agents. 120. New 4-substituted benzylamine and benzyl ether derivatives of 4'-O-demethylepipodophyllotoxin as potent inhibitors of human DNA topoisomerase II” (1991).

Legend:
[1] = 50% reduction in KB cell number after a 3-day incubation.; format: functional; conditions: Homo sapiens, 72 h, read-out: ID50 (the source's name)
Nucleic Acid [2] = test: % complex formation of cellular protein -DNA complex at a concentration of 10 uM; format: functional; conditions: Homo sapiens
[3] = target: DNA topoisomerase II (Homo sapiens) (UniProt P11388+Q02880); test: Inhibition of human DNA topoisomerase II; format: protein assay
Nucleic Acid [4] = test: Compound was tested for the % complex formation of cellular protein -DNA complex at a concentration of 10 uM; format: functional; conditions: Homo sapiens
[5] = Compound was tested for the concentration to afford 50% reduction in KB cell number after a 3-day incubation; format: functional; conditions: Homo sapiens, 72 h, read-out: ID50 (the source's name)

Row | SMILES | IC50 [1] [nM] | Complex formation (Nucleic Acid [2]) [%] | ID50 [3] [nM] | Complex formation (Nucleic Acid [4]) [%] | IC50 [5] [nM]
1 | COc1cc([C@@H]2c3cc4c(cc3[C@@H](Nc3ccc(F)cc3)[C@H]3COC(=O)[C@H]23)OCO4)cc(OC)c1O | 240 | 213 | – | – | –
2 | COc1cc([C@@H]2c3cc4c(cc3[C@@H](NCc3ccccc3F)[C@H]3COC(=O)[C@H]23)OCO4)cc(OC)c1O | 1900 | 126 | 100000 | – | –
3 | COc1cc([C@@H]2c3cc4c(cc3[C@@H](Nc3ccc([N+](=O)[O-])cc3)[C@H]3COC(=O)[C@H]23)OCO4)cc(OC)c1O | – | – | – | 323 | 490
4 | COc1cc([C@@H]2c3cc4c(cc3[C@@H](O[C@@H]3O[C@@H]5CO[C@@H](C)O[C@H]5[C@H](O)[C@H]3O)[C@H]3COC(=O)[C@H]23)OCO4)cc(OC)c1O [ETOPOSIDE] | 200 | – | – | 100 | –
5 | COc1cc(CN[C@@H]2c3cc4c(cc3[C@@H](c3cc(OC)c(O)c(OC)c3)[C@H]3C(=O)OC[C@@H]32)OCO4)cc(OC)c1 | 1700 | 144 | 100000 | – | –
6 | COc1cc([C@@H]2c3cc4c(cc3[C@@H](NCc3cccc(Cl)c3)[C@H]3COC(=O)[C@H]23)OCO4)cc(OC)c1O | 1200 | 159 | 50000 | – | –
7 | COc1cc([C@@H]2c3cc4c(cc3[C@@H](NCc3ccc(F)cc3)[C@H]3COC(=O)[C@H]23)OCO4)cc(OC)c1O | > 4000 | 169 | 50000 | – | –
8 | COc1cc([C@@H]2c3cc4c(cc3[C@@H](NCc3cccc(F)c3)[C@H]3COC(=O)[C@H]23)OCO4)cc(OC)c1O | 3000 | 216 | 25000 | – | –
9 | COc1cc([C@@H]2c3cc4c(cc3[C@@H](NCc3ccc(C(F)(F)F)cc3)[C@H]3COC(=O)[C@H]23)OCO4)cc(OC)c1O | 2300 | 99 | 100000 | – | –
10 | COc1cc([C@@H]2c3cc4c(cc3[C@@H](NCc3cccc(C#N)c3)[C@H]3COC(=O)[C@H]23)OCO4)cc(OC)c1O | < 400 | 225 | 25000 | – | –
11 | COc1cc([C@@H]2c3cc4c(cc3[C@@H](OCc3ccccc3)[C@H]3COC(=O)[C@H]23)OCO4)cc(OC)c1O | 2400 | < 25 | > 100000 | – | –
12 | COc1cc([C@@H]2c3cc4c(cc3[C@@H](NCc3ccccc3[N+](=O)[O-])[C@H]3COC(=O)[C@H]23)OCO4)cc(OC)c1O | 1800 | 144 | 50000 | – | –
13 | COc1cc([C@@H]2c3cc4c(cc3[C@@H](Nc3ccc(N)cc3)[C@H]3COC(=O)[C@H]23)OCO4)cc(OC)c1O | 800 | 330 | – | – | –
14 | COc1cc([C@@H]2c3cc4c(cc3[C@@H](NCc3cccc(N)c3)[C@H]3COC(=O)[C@H]23)OCO4)cc(OC)c1O | < 400 | 191 | 25000 | – | –
15 | COc1cc([C@@H]2c3cc4c(cc3[C@@H](NCc3ccccc3)[C@H]3COC(=O)[C@H]23)OCO4)cc(OC)c1O | 2200 | 181 | 25000 | – | –
16 | COc1cc([C@@H]2c3cc4c(cc3[C@@H](OCc3ccc([N+](=O)[O-])cc3)[C@H]3COC(=O)[C@H]23)OCO4)cc(OC)c1O | 1900 | < 25 | > 100000 | – | –
17 | COc1cc([C@@H]2c3cc4c(cc3[C@@H](NCc3cccc([N+](=O)[O-])c3)[C@H]3COC(=O)[C@H]23)OCO4)cc(OC)c1O | < 400 | 130 | 25000 | – | –
18 | COc1cc([C@@H]2c3cc4c(cc3[C@@H](NCc3ccc(C#N)cc3)[C@H]3COC(=O)[C@H]23)OCO4)cc(OC)c1O | < 400 | 284 | 25000 | – | –
19 | COc1cc([C@@H]2c3cc4c(cc3[C@@H](NCc3ccc([N+](=O)[O-])cc3)[C@H]3COC(=O)[C@H]23)OCO4)cc(OC)c1O | 400 | 216 | 50000 | – | –
20 | COc1cc([C@@H]2c3cc4c(cc3[C@@H](NCc3ccccc3N)[C@H]3COC(=O)[C@H]23)OCO4)cc(OC)c1O | < 400 | 184 | 25000 | – | –
